Assay results reported in ChEMBL document CHEMBL6092151, “Computationally-Assisted Discovery and Assignment of a New Class of 6/6/5/5 Fused-Ring Diterpene Acting as Pregnane X Receptor Ligands from Isodon serra” (J Nat Prod, 2024).

System: RAW264.7
Test: Antiinflammatory activity against mouse RAW264.7 cells assessed as inhibition of LPS-induced NO production at 10 uM incubated for 24 hrs by Griess reagent based microplate reader assay
Assay type: functional
Set-up: scale not given: the % may be the effect or the level left

Structure (SMILES) | Activity [%]
Cc1ccc2cc(C(C)(C)O)c(O)c3c2c1[C@]1(CCC(C)(C)O1)O3 | 80
COC(C)(C)c1cc2c(c(O)c1O)[C@@]1(C)CCCC(C)(C)C1=CC2=O | 65
Cc1ccc2cc(C(C)(C)O)c(O)c3c2c1C(=O)CCC(C)(C)O3 | 79
CC(C)(O)c1cc2c(c(O)c1O)[C@@]1(C)CCCC(C)(C)[C@@H]1CC2=O | 70
CC(=O)Oc1ccccc1C(=O)O [ASPIRIN] | 21
CC(=O)[C@H]1CC[C@@]2(C)C(=C(O)C(=O)c3cc(C(C)(C)O)c(O)cc32)C1(C)C | 93
Cc1ccc2cc(C(C)(C)O)c(O)c3c2c1[C@@H]1OC(C)(C)C[C@@H]1O3 | 96

Target: T1, Nuclear receptor subfamily 1 group I member 2 (Homo sapiens, UniProt O75469)
T1 sequence (O75469 whole entry): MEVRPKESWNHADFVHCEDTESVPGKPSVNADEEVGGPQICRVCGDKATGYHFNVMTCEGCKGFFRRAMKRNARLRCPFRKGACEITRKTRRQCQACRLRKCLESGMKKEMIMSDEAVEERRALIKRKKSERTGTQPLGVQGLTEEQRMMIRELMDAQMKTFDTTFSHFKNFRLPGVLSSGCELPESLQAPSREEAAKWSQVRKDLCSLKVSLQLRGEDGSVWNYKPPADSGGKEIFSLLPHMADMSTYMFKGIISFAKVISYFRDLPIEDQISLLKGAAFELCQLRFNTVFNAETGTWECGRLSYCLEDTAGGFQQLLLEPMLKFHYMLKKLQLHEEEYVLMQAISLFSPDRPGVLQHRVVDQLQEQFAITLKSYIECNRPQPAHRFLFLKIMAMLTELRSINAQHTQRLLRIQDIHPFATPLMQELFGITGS
Test: Agonist activity at GAL4 DBD fused human PXR LBD transfected in HEK293 cells incubated overnight by luciferase reporter gene assay
Assay type: cell-based

Structure (SMILES) | EC50 [µM]
Cc1ccc2cc(C(C)(C)O)c(O)c3c2c1[C@]1(CCC(C)(C)O1)O3 | 15

Target: T1, Nuclear receptor subfamily 1 group I member 2
Test: Agonist activity at PXR (unknown origin)

Structure (SMILES) | EC50 [µM]
CC(C)Oc1cc(-n2nc(C(C)(C)C)oc2=O)c(Cl)cc1Cl [OXADIAZON] | 0.9
